The NIST ThermoML archive (doi:10.1016/j.jct.2013.09.015)
Numbers after ± are expanded uncertainties.

Tests used:
[1] = 298.15 K, 101.33 kPa, Liquid; for speed of sound: Sing-around technique in a fixed-path interferometer; for mass density: Vibrating tube method
[2] = excess molar enthalpy (molar enthalpy of mixing); xn = mol fraction of the nth substance listed; details: 298.15 K, 101 kPa, Liquid, Calvet calorimetry

CCn1cc[n+](C)c1.F[B-](F)(F)F [1-ethyl-3-methylimidazolium tetrafluoroborate]
[1]
Details	mass density [kg/m3]	speed of sound [m/s]
–	1279.91 ± 1.5	1619.4 ± 2.4

CCn1cc[n+](C)c1.F[B-](F)(F)F [1-ethyl-3-methylimidazolium tetrafluoroborate] + O
[2]
Details	excess molar enthalpy [kcal/mol]
x1 = 0.1136	0.0374 ± 0.0186
x1 = 0.1678	0.0537 ± 0.0263
x1 = 0.2249	0.0693 ± 0.0335
x1 = 0.2734	0.0812 ± 0.0406
x1 = 0.331	0.0934 ± 0.0478
x1 = 0.3615	0.0989 ± 0.0502
x1 = 0.4325	0.109 ± 0.055
x1 = 0.4709	0.112 ± 0.0574
x1 = 0.5314	0.115 ± 0.0574
x1 = 0.5722	0.115 ± 0.0574
x1 = 0.6291	0.113 ± 0.0574
x1 = 0.6685	0.109 ± 0.055
x1 = 0.7311	0.0986 ± 0.0502
x1 = 0.771	0.0898 ± 0.0454
x1 = 0.8324	0.0724 ± 0.0359
x1 = 0.8694	0.0596 ± 0.0287
x1 = 0.9103	0.0434 ± 0.0217
x1 = 0.9311	0.0343 ± 0.0172

O=C1CCCN1 [2-pyrrolidinone]
[1]
Details	mass density [kg/m3]	speed of sound [m/s]
–	1107.15 ± 0.23	1633.9 ± 1.5

O=C1CCCN1 [2-pyrrolidinone] + O
[2]
Details	excess molar enthalpy [kcal/mol]
x1 = 0.1013	-0.0589 ± 0.0287
x1 = 0.136	-0.0776 ± 0.0382
x1 = 0.1745	-0.0978 ± 0.0478
x1 = 0.2319	-0.125 ± 0.0621
x1 = 0.2775	-0.145 ± 0.0717
x1 = 0.3351	-0.166 ± 0.0837
x1 = 0.3813	-0.18 ± 0.0908
x1 = 0.4343	-0.193 ± 0.0956
x1 = 0.4783	-0.2 ± 0.1
x1 = 0.5401	-0.205 ± 0.103
x1 = 0.5713	-0.206 ± 0.103
x1 = 0.6264	-0.201 ± 0.1
x1 = 0.6771	-0.192 ± 0.0956
x1 = 0.7314	-0.177 ± 0.0884
x1 = 0.7693	-0.162 ± 0.0813
x1 = 0.8326	-0.13 ± 0.0645
x1 = 0.8951	-0.0899 ± 0.0454
x1 = 0.9204	-0.0708 ± 0.0359

O=C1CCCN1 [2-pyrrolidinone] + c1ccncc1
[2]
Details	excess molar enthalpy [kcal/mol]
x1 = 0.1213	0.0217 ± 0.0108
x1 = 0.1715	0.029 ± 0.0146
x1 = 0.2336	0.0366 ± 0.0182
x1 = 0.2615	0.0394 ± 0.0198
x1 = 0.3255	0.0446 ± 0.0222
x1 = 0.3701	0.0471 ± 0.0237
x1 = 0.4291	0.0489 ± 0.0239
x1 = 0.4711	0.0493 ± 0.0239
x1 = 0.5256	0.0485 ± 0.0239
x1 = 0.5713	0.0469 ± 0.0234
x1 = 0.6364	0.0431 ± 0.0215
x1 = 0.6716	0.0404 ± 0.0203
x1 = 0.7315	0.0348 ± 0.0174
x1 = 0.7619	0.0315 ± 0.0158
x1 = 0.8311	0.0232 ± 0.0117
x1 = 0.8751	0.0174 ± 0.0086
x1 = 0.9204	0.0112 ± 0.00574
x1 = 0.9344	0.00927 ± 0.00454

CN1CCCC1=O [N-methylpyrrolidone]
[1]
Details	mass density [kg/m3]	speed of sound [m/s]
–	1028.23 ± 0.25	1546 ± 1.6

c1ccncc1 [pyridine]
[1]
Details	mass density [kg/m3]	speed of sound [m/s]
–	978.252 ± 0.2	1417.8 ± 1.5

c1ccncc1 [pyridine] + CN1CCCC1=O
[2]
Details	excess molar enthalpy [kcal/mol]
x2 = 0.0911	-0.0363 ± 0.0182
x2 = 0.1426	-0.052 ± 0.0263
x2 = 0.1985	-0.0669 ± 0.0335
x2 = 0.2312	-0.0755 ± 0.0382
x2 = 0.2854	-0.086 ± 0.043
x2 = 0.312	-0.0903 ± 0.0454
x2 = 0.3789	-0.097 ± 0.0478
x2 = 0.443	-0.103 ± 0.0526
x2 = 0.4995	-0.104 ± 0.0526
x2 = 0.5478	-0.102 ± 0.0502
x2 = 0.5851	-0.1 ± 0.0502
x2 = 0.6359	-0.0959 ± 0.0478
x2 = 0.6982	-0.0895 ± 0.0454
x2 = 0.725	-0.0852 ± 0.043
x2 = 0.7732	-0.0742 ± 0.0382
x2 = 0.8489	-0.0552 ± 0.0287
x2 = 0.8923	-0.0427 ± 0.0213
x2 = 0.9156	-0.0345 ± 0.0172
